From ChEMBL document CHEMBL1201862, “PubChem BioAssay data set” (2004)
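Step 1: Grow cells in 96-well plates. Step 2: Expose to compound for 48 hours at 5 concentrations. Step 3: Interpolate endpoints linearly; if unreached, use highest concentration. GI50: concentration for 50% inhibition of growth.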 Calls of active or inactive are those of the source. Rule as the data show it: active = GI50 up to about 1.1 µM and inactive = higher.

What was measured:
Assay in all cases: NCI anticancer screen, dose series, 48 h
U-251 = test system: U-251
NCI-H226 = test system: NCI-H226
HCT-15 = test system: HCT-15
HL-60 = test system: HL-60
MDA-N = test system: MDA-N
SN12C = test system: SN12C
786-0 = test system: 786-0
MOLT-4 = test system: MOLT-4
KM12 = test system: KM12
SF-539 = test system: SF-539
MDA-MB-231 = test system: MDA-MB-231
OVCAR-3 = test system: OVCAR-3
ACHN = test system: ACHN
NCI/ADR-RES = test system: NCI/ADR-RES
NCI-H460 = test system: NCI-H460
IGROV-1 = test system: IGROV-1
OVCAR-5 = test system: OVCAR-5
SK-MEL-28 = test system: SK-MEL-28
HOP-62 = test system: HOP-62

Compound	GI50 (U-251)	GI50 (NCI-H226)	GI50 (HCT-15) [µM]	GI50 (HL-60)	GI50 (MDA-N)	GI50 (SN12C)	GI50 (786-0)	GI50 (MOLT-4)	GI50 (KM12)	GI50 (SF-539)	GI50 (MDA-MB-231)	GI50 (OVCAR-3)	GI50 (ACHN)	GI50 (NCI/ADR-RES)	GI50 (NCI-H460)	GI50 (IGROV-1)	GI50 (OVCAR-5)	GI50 (SK-MEL-28)	GI50 (HOP-62)
O=c1c2c3c(sc2nc2n1NC=NN2)CCCC3	16 µM (inactive)	17.3 µM (inactive)	17.4	1.2 µM (inactive)	16 µM (inactive)	17.9 µM (inactive)	17.6 µM (inactive)	0.323 µM (active)	18.1 µM (inactive)	17.4 µM (inactive)	13.4 µM (inactive)	1.28 µM (inactive)	16.7 µM (inactive)	26.7 µM (inactive)	20.2 µM (inactive)	26.6 µM (inactive)	18.2 µM (inactive)	17.7 µM (inactive)	
O=[N+]([O-])c1ccc(NC(=S)N/N=C(\c2ccccc2)c2ccccn2)cc1	1.36 µM (inactive)	1.47 µM (inactive)	0.119	< 0.0129 µM (active)	1.6 µM (inactive)	1.48 µM (inactive)	1.25 µM (inactive)	< 0.0314 µM (active)	1.7 µM (inactive)	1.74 µM (inactive)	< 0.01 µM (active)		1.16 µM (inactive)	2.04 µM (inactive)	4.85 µM (inactive)	1.64 µM (inactive)	1.88 µM (inactive)	1.22 µM (inactive)	0.242 µM (active)
c1ccc(CSCCC(SCc2ccccc2)SCc2ccccc2)cc1	> 10 µM (inactive)	> 10 µM (inactive)	> 10	> 10 µM (inactive)	> 10 µM (inactive)	> 10 µM (inactive)	> 10 µM (inactive)	> 10 µM (inactive)	> 10 µM (inactive)	> 10 µM (inactive)	> 10 µM (inactive)	> 10 µM (inactive)	> 10 µM (inactive)	> 10 µM (inactive)	> 10 µM (inactive)	> 10 µM (inactive)		> 10 µM (inactive)	> 10 µM (inactive)
O=CC1OC(=O)c2cc(O)c(O)c(O)c2-c2c(cc(O)c(O)c2O)C(=O)OC1C(O)C(O)CO (stereo not given)	17.9 µM (inactive)	> 100 µM (inactive)	69.2	35.4 µM (inactive)	18.7 µM (inactive)	28.5 µM (inactive)	> 100 µM (inactive)	22.9 µM (inactive)	41.5 µM (inactive)	> 100 µM (inactive)	17.1 µM (inactive)	71 µM (inactive)	43.6 µM (inactive)	76.9 µM (inactive)	28.8 µM (inactive)	> 100 µM (inactive)	> 100 µM (inactive)	83.4 µM (inactive)	63.2 µM (inactive)
S=C1Cc2c(-c3ccccc3)cc(-c3ccc(Cl)cc3)nc2-c2ccccc2N1	0.746 µM (active)	2.9 µM (inactive)	6.84	16.9 µM (inactive)	4.27 µM (inactive)	1.63 µM (inactive)	1.08 µM (active)	3.79 µM (inactive)	8.75 µM (inactive)	3.08 µM (inactive)	1.53 µM (inactive)	3.07 µM (inactive)	1.04 µM (active)	2.38 µM (inactive)	3.27 µM (inactive)	0.971 µM (active)	7.45 µM (inactive)	3.4 µM (inactive)	1.39 µM (inactive)
Cc1ccc(C2SCc3nc4ccccc4n32)cc1 (stereo not given)	5.87 µM (inactive)	1.88 µM (inactive)	1.85	1.6 µM (inactive)	0.407 µM (active)	3.01 µM (inactive)	5.62 µM (inactive)	2.96 µM (inactive)	1.51 µM (inactive)	2.29 µM (inactive)	10.6 µM (inactive)	4.72 µM (inactive)	5.32 µM (inactive)	2.37 µM (inactive)	3.76 µM (inactive)	3.18 µM (inactive)	6.46 µM (inactive)	6.62 µM (inactive)	3.44 µM (inactive)
CC1C2CC(C(S(=O)(=O)N3CCOCC3)/C2=N\O)C1(C)C (stereo not given)		> 100 µM (inactive)	> 100	> 100 µM (inactive)	> 100 µM (inactive)	> 100 µM (inactive)	> 100 µM (inactive)	> 100 µM (inactive)	> 100 µM (inactive)	> 100 µM (inactive)	> 100 µM (inactive)	> 100 µM (inactive)	> 100 µM (inactive)	> 100 µM (inactive)	> 100 µM (inactive)	> 100 µM (inactive)		> 100 µM (inactive)	> 100 µM (inactive)
CC(=O)OCC1OC(NC(=S)CCSc2nc3ccccc3c(=O)n2-c2ccccc2)C(OC(C)=O)C(OC(C)=O)C1OC(C)=O (stereo not given)	38.1 µM (inactive)	50.5 µM (inactive)	53.7	29.2 µM (inactive)	44.4 µM (inactive)	68.2 µM (inactive)	63.2 µM (inactive)	30 µM (inactive)	36.5 µM (inactive)	1.64 µM (inactive)	> 100 µM (inactive)	40.4 µM (inactive)	83.4 µM (inactive)	> 100 µM (inactive)	> 100 µM (inactive)	2.34 µM (inactive)	22.6 µM (inactive)	59.6 µM (inactive)	28.3 µM (inactive)
Cc1ccc(S(=O)(=O)N2CCc3cc(O)c([N+](=O)[O-])cc32)cc1	> 100 µM (inactive)	> 100 µM (inactive)	> 100	> 100 µM (inactive)	> 100 µM (inactive)	> 100 µM (inactive)	> 100 µM (inactive)	> 100 µM (inactive)	> 100 µM (inactive)	> 100 µM (inactive)	> 100 µM (inactive)		> 100 µM (inactive)	> 100 µM (inactive)		> 100 µM (inactive)		> 100 µM (inactive)	> 100 µM (inactive)
Cc1cc(=O)oc2cc(OC(=O)Nc3ccc(Cl)c(Cl)c3)ccc12	20.4 µM (inactive)	20.3 µM (inactive)	20.9	18.5 µM (inactive)	21.3 µM (inactive)	25.3 µM (inactive)	38.8 µM (inactive)	17.1 µM (inactive)	27.1 µM (inactive)	18.8 µM (inactive)	26 µM (inactive)	13 µM (inactive)	20.9 µM (inactive)	30.5 µM (inactive)	18.5 µM (inactive)	20.2 µM (inactive)	20.4 µM (inactive)	25.4 µM (inactive)	24.7 µM (inactive)
Cc1cccc2c1[nH]c1[nH]c(=O)[nH]c(=O)c12		> 100 µM (inactive)	> 100	> 100 µM (inactive)	> 100 µM (inactive)	> 100 µM (inactive)	> 100 µM (inactive)	> 100 µM (inactive)	> 100 µM (inactive)	> 100 µM (inactive)	> 100 µM (inactive)	30.7 µM (inactive)	> 100 µM (inactive)	> 100 µM (inactive)		> 100 µM (inactive)	> 100 µM (inactive)		> 100 µM (inactive)
COc1cc(/C=N/NC(=O)c2c(Cl)c(Cl)c(Cl)c(Cl)c2-c2nc3cc(C(=O)c4ccccc4)ccc3[nH]2)ccc1O	35.4 µM (inactive)	34.2 µM (inactive)	15.6	19.2 µM (inactive)	16.1 µM (inactive)	36.5 µM (inactive)	37.2 µM (inactive)	16.4 µM (inactive)	46.5 µM (inactive)	24.9 µM (inactive)	26.8 µM (inactive)	40 µM (inactive)	60.7 µM (inactive)	20.9 µM (inactive)		47.6 µM (inactive)	> 100 µM (inactive)	49.2 µM (inactive)	38.5 µM (inactive)
CN1CC[C@@]2(c3cccc(O)c3)CC(=O)/C(=C/c3ccccc3)[C@H]1C2.[O-][Cl+3]([O-])([O-])O	2.59 µM (inactive)	17.8 µM (inactive)	5.89	2.25 µM (inactive)	4.88 µM (inactive)	7.03 µM (inactive)	4.44 µM (inactive)	2.49 µM (inactive)	3.81 µM (inactive)	16.9 µM (inactive)	6.82 µM (inactive)		8.11 µM (inactive)	3.85 µM (inactive)	3.52 µM (inactive)	13.7 µM (inactive)	14.3 µM (inactive)	11.2 µM (inactive)	18.5 µM (inactive)
N#CC(c1ccccc1)N(CCOCCOCCN(C(=O)c1ccccc1)C(C#N)c1ccccc1)C(=O)c1ccccc1 (stereo not given)	> 100 µM (inactive)	> 100 µM (inactive)	> 100	36.2 µM (inactive)	> 100 µM (inactive)	93.3 µM (inactive)	> 100 µM (inactive)	32.2 µM (inactive)	> 100 µM (inactive)	> 100 µM (inactive)	> 100 µM (inactive)	66.8 µM (inactive)	> 100 µM (inactive)	28.2 µM (inactive)	81.3 µM (inactive)	> 100 µM (inactive)	> 100 µM (inactive)	82.6 µM (inactive)	
COC(=O)[C@@H]1CN(C(=O)c2ccccc2)C(=O)N1	> 100 µM (inactive)	> 100 µM (inactive)		> 100 µM (inactive)	> 100 µM (inactive)	> 100 µM (inactive)	> 100 µM (inactive)	> 100 µM (inactive)	> 100 µM (inactive)	> 100 µM (inactive)	> 100 µM (inactive)	> 100 µM (inactive)	> 100 µM (inactive)	> 100 µM (inactive)	> 100 µM (inactive)	> 100 µM (inactive)	> 100 µM (inactive)	> 100 µM (inactive)	> 100 µM (inactive)
